The target of data set [1] is T1, RARα (Homo sapiens, UniProt P10276).
T1 sequence (P10276 1-462): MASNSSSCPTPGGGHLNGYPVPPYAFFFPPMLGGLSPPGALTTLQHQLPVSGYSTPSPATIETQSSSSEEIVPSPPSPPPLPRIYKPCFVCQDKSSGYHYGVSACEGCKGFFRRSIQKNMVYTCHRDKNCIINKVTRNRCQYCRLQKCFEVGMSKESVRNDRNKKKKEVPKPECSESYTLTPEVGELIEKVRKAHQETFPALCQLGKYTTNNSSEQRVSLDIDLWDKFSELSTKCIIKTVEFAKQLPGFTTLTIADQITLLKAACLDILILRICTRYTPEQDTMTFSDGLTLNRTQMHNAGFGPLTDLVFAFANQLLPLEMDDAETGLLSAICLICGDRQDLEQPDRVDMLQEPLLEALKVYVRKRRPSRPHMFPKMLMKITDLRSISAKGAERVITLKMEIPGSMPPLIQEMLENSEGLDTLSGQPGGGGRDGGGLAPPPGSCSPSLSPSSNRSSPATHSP
The experiment in a line: ligand binding assay, RARα. The conditions noted are these: for Kd: Table 9 (Formula F), read-out: RAR α Kd; for Ki: read-out: RAR Bind. Ki α. The gist of the method: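 Binding of compounds to several retinoid receptor subtypes was measured. Results are given as Ki values in nanomolar concentration, derived per Cheng et al.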

The target in the next data set is T2, RXRγ (UniProt P28705).
T2 sequence (P28705 1-463): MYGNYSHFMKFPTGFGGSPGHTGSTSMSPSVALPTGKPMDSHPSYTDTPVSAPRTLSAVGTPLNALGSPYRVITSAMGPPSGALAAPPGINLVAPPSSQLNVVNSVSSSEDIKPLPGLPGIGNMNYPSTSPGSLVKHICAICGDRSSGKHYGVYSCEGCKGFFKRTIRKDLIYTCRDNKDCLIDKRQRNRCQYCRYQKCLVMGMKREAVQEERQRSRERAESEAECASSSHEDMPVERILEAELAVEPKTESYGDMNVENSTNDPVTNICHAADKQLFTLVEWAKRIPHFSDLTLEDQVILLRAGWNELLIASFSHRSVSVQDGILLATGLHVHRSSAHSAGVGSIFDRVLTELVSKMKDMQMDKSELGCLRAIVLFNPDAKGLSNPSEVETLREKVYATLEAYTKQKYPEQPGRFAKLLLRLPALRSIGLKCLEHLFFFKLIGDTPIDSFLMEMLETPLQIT
Description: ligand binding assay, RXRγ. The conditions noted are these: Table 9 (Formula F); read-out: RXR γ Kd. From the text: (§1) Specifically, one such assay is a chimeric receptor transactivation assay which tests for agonist-like activity in the R RAPE and RAR7 receptor subtypes, and which is based on work published by Feigner, P. L. and Holm, M (1989) Focus, 112 is described in detail in U.S. Pat. No. 5,455,265. The specification of U.S. Pat. No. 5,455,265 is hereby expressly incorporated by reference. A holoreceptor transactivation assay and a ligand binding assay which measure the antagonist/agonist like activity of the compounds of the invention, or their ability to bind to the several retinoid receptor subtypes, respectively, are described in published PCT Application No. WO WO93/11755 (particularly on pages 30-33 and 37-41) published on Jun. 24, 1993, the specification of which is also incorporated herein by reference. A detailed experimental procedure for holoreceptor transactivations has been described by Heyman et al. Cell 68, 397-406, (1992); Allegretto et al. J. Biol. Chem. 268, 26625-26633, and Mangelsdorf et al. The Retinoids: Biology, Chemistry and Medicine, pp 319-349, Raven Press Ltd., New York, which are expressly incorporated herein by reference. The results obtained in this assay are expressed in EC50 numbers, as they are also in the chimeric receptor transactivation assay. The results of the ligand binding assay are expressed in Ki numbers. (See Cheng et al. Biochemical Pharmacology Vol. 22 pp 3099-3108, expressly incorporated herein by reference.)
(§2) Generally speaking, in the tables disclosing the results of transactivation and binding assays the numbers in parentheses indicate efficacy as a percentage compared to the standard compound, (2E,4E,1′S,2′S)-3-methyl-5-[2′-methyl-2′-(5,5,8,8-tetramethyl-5,6,7,8-tetrahydro-naphthalen-2-yl)cyclopropyl]-penta-2,4-dienoic acid and the other numbers indicate the measured EC50 and K; in nanomolar concentration.

Data set [2] addresses T3, RARα (Homo sapiens, UniProt P10276).
T3 sequence (P10276 183-417 limits assumed): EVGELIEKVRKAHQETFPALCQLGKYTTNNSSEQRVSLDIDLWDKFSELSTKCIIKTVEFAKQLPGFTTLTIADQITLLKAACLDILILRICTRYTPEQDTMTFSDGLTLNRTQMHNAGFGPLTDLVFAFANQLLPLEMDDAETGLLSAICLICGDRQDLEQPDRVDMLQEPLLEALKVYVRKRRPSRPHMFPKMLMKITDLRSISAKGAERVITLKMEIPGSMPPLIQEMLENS
Description: chimeric receptor transactivation assay, RARα. It counts as cell-based. The following applies: for EC50: chimeric receptor transactivation, read-out: RAR Trans. EC50 α; for Emax: percentage compared to the standard compound, read-out: RAR Trans. efficacy (number in parentheses) α.
From the text: as §1
Efficacy in a transactivation assay is expressed as a percentage of the maximum potency attained by the compound compared to a standard which, in this case, is the compound named (2E,4E,1′S,2′S)-3-methyl-5-[2′-methyl-2′-(5,5,8,8-tetramethyl-5,6,7,8-tetrahydro-naphthalen-2-yl)-cyclopropyl]-penta-2,4-dienoic acid. This standard compound is described in U.S. Pat. No. 6,114,533.
The specification of this application for patent is organized in several sections in accordance with structural Formulas A through F each of which discloses a group of preferred compounds within the scope of the invention. Tables that disclose the activity of certain exemplary compounds of the invention in the above-described RXR receptor transactivation and binding assays are found in the corresponding sections. […] The transactivation data pertaining to the activation of RXR receptors were obtained in the holoreceptor assay.
as §2

A further data set addresses T4, RARγ (Homo sapiens, UniProt P13631).
T4 sequence (P13631 185-419 limits assumed): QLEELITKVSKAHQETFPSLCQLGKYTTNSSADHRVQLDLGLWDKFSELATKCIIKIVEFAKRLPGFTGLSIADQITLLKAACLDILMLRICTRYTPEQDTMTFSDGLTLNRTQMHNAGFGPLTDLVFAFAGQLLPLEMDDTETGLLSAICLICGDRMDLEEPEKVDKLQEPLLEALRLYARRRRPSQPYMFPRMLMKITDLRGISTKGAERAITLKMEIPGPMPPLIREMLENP
Description: chimeric receptor transactivation assay, RARγ. It is filed as cell-based. The following applies: read-out: RAR Trans. EC50 γ.
From the text: as §1, with “(See Cheng et al. Biochemical Pharmacology Vol. 22 pp 3099-3108, expressly incorporated herein by reference.)” left out
Efficacy in a transactivation assay is expressed as a percentage of the maximum potency attained by the compound compared to a standard which, in this case, is the compound named (2E,4E,1′S,2′S)-3-methyl-5-[2′-methyl-2′-(5,5,8,8-tetramethyl-5,6,7,8-tetrahydro-naphthalen-2-yl)-cyclopropyl]-penta-2,4-dienoic acid. […]
as §2

The subject of the next data set is ob/ob mice. Description: serum glucose, triglycerides and T4 in diabetic mice, oral gavage in corn oil daily for seven days. It is filed as in vivo. The following applies: 80 mg/kg, corn oil vehicle (second Table 9).

Here are results for five molecules from patent publication US6887896B1, “7-[(7-Alkoxy)-chrom-3-en-6-yl]-heptatrienoic acid and 7-[(3-alkoxy)-5,6-dihydronaphthalen-2-yl]-heptatrienoic acid derivatives having serum glucose reducing activity” (Allergan, Inc., priority 2003, dated 2005).

The Kd is the concentration at which binding is half-saturated. By EC50 is commonly meant the concentration needed to bring the measured effect to its halfway point. Turning to `CCOc1c(\C(=C(F)/C=C/C(C)=C/C(=O)O)C(C)C)cc2c(c1Br)C(C)(C)CC=C2C(C)C` [Compound A-171, (2E,4E,6E)-7-(4-Bromo-3-ethoxy-8-isopropyl-5,5-dimethyl-5,6-dihydro-naphthalen-2-yl)-6-fluoro-3.8-dimethyl-nona-2.4,6-trienoic acid], the Kd at RARα [1] worked out at 29 nM. On RXRγ, the Kd came out at 112 nM. For the same molecule, on RARα [2], the EC50 amounted to 3 nM and the Emax turned out to be 13%.

What is called Ki is a measure of affinity in units of concentration, obtained from inhibition or displacement. In the case of `CCOc1cc2c(cc1\C(C)=C(F)/C=C/C(C)=C/C(=O)O)C=CCC2(C)C` [Compound A-76, (2E,4E,6E)-7-(3-Ethoxy-5,5-dimethyl-5,6-dihydro-naphthalen-2-yl)-6-fluoro-3-methyl-octa-2,4.6-trienoic acid], at RARγ, the EC50 was above 10000 nM. Moreover, the Ki at RARα [1] amounted to 1600 nM.

On to `CCOc1c(\C(CC)=C(F)/C=C/C(C)=C/C(=O)O)cc2c(c1Cl)C(C)(C)CC=C2C(C)C` [Compound A-178, (2E,4E,6E)-7-(4-Chloro-3-ethoxy-8-isopropyl-5,5-dimethyl-5,6-dihydronaphthalen-2-yl)-6-fluoro-3-methyl-nona-2,4,6-trienoic acid], for which the EC50 at RARγ is above 10000 nM; at RARα [2], 1 nM. Also, the Kd came out at 9.9 nM on RARα [1] and 61 nM at RXRγ. For the same molecule, the Emax at RARα [2] is 8%.

For `CCOc1cc2c(cc1\C(CC)=C(F)/C=C/C(C)=C/C(=O)O)C=CCC2(C)C` [Compound A-77], at RARγ, the EC50 worked out at 2 nM. The Ki on RARα [1] is 301 nM.

Take `CCOc1c(\C(CC)=C(F)/C=C/C(C)=C/C(=O)O)cc2c(c1Br)C(C)(C)CC=C2C(C)C` [Compound A-170, (2E,4E,6E)-7-(4-Bromo-3-ethoxy-8-isopropyl-5,5-dimethyl-5,6-dihydro-naphthalen-2-yl)-6-fluoro-3-methyl-nona-2,4,6-trienoic acid]: the Kd at RARα [1] was determined as 12 nM. The Kd on RXRγ stood at 29 nM. In addition, in the data set on ob/ob mice, the “Glucose Day 3, 3 h” value stood at 294 mg/dL; the “Glucose Day 6, 3 h” value came to 255 mg/dL; the “T4 Day 7” value was found to be 2.7 µg/dL; the “Triglycerides Day 3, 3 h” value was 195 mg/dL. For the same molecule, in the data set with ob/ob mice (day 0 (pre-treatment)), the “Glucose Day 0” value is 423 mg/dL and the “Triglycerides Day 0” value was determined as 168 mg/dL.
